For data set [1], the system named is Rattus norvegicus. Put plainly: Antisecretory activity in rat assessed as inhibition of pentagastrin-stimulated gastric acid secretion at 10 ug/kg, iv relative to PGE2. The format is functional, Stomach.
The nature of data set [2]: Spasmogenic activity in nulliparous guinea pig uterine relative to PGE2. The format is functional, Cavia porcellus, Uterus.
The subject of data set [3] is Canis familiaris. Kind of data set: Hypotensive activity in iv dosed PGE2-treated Mongrel dog assessed as change in blood pressure of greater than 10 mm by mercury manometer relative to PGE2. The format is functional, Canis lupus familiaris.
The test system of data set [4] is Mus musculus. Kind of data set: Induction of diarrheal activity in conscious mouse at 0.1 to 3 mg/kg, iv administered for 30 mins relative to PGE2. The format is organism-based. Details: dose 0.1-3 mg/kg, route intravenous. As to conditions: in vivo, 0.5 h.
The subject of data set [5] is Cavia porcellus. Put plainly: Bronchodilator activity in Reed-Willet guinea pig assessed as inhibition of histamine-induced bronchoconstriction at 0.28 mM administered through nebulizer for 1 min relative to PGE2. The format is functional.
The subject of data set [6] is Rattus norvegicus. Put plainly: Antisecretory activity in rat assessed as inhibition of pentagastrin-stimulated gastric acid secretion at 50 ug/kg, iv relative to PGE2. It counts as functional, Stomach.
Data set [7] in a line: Dissociation constant, pKa of the compound. The format is physicochemical.

Turning to `CCCCC(C)(C)[C@H](O)/C=C/[C@H]1[C@H](O)CC(=O)[C@@H]1C/C=C\CCCC(=O)O`, the “fold change (FC)” value was 360 in data set [1]; 33 in data set [2]; 10 in data set [3]; 5300 in data set [4]; 41 in data set [5].

With `CCCCC[C@H](O)/C=C/[C@H]1[C@H](O)CC(=O)[C@@H]1C/C=C\CCCc1nnn[nH]1`, the “fold change (FC)” value in data set [6] worked out at 35; in data set [2], 100; in data set [3] it was 10; in data set [4], 50; in data set [5] it was 65.

Regarding `CCCCC[C@H](O)/C=C/[C@H]1[C@H](O)CC(=O)[C@@H]1C/C=C\CCCC(=O)NC(C)=O`, the “fold change (FC)” value worked out at 160 in data set [6]; 65 in data set [2]; 25 in data set [3]; 100 in data set [4]; 63 in data set [5].

Consider `CCCCC[C@H](O)/C=C/[C@H]1[C@H](O)CC(=O)[C@@H]1C/C=C\CCCC(=O)NC(=O)c1ccccc1`, for which the “fold change (FC)” value in data set [6] is 40; in data set [2], 67; in data set [3], 10; in data set [4] it was 83; in data set [5] it was 87.

Regarding `CCCCC[C@H](O)/C=C/[C@H]1[C@H](O)CC(=O)[C@@H]1C/C=C\CCNC(=O)NC(C)=O`, the “fold change (FC)” value in data set [6] was 0; in data set [2], less than 0.1; in data set [3], less than 0.5; in data set [4], less than 5; in data set [5], 25.

As to `CCCCC[C@H](O)/C=C/[C@H]1[C@H](O)CC(=O)[C@@H]1C/C=C\CCCC(=O)NC(=O)NCC`, the “fold change (FC)” value was 0 in data set [6]; 0.2 in data set [2]; 0.5 in data set [3]; 27 in data set [4]; 28 in data set [5].

With `CCCCC[C@H](O)/C=C/[C@H]1[C@H](O)CC(=O)[C@@H]1C/C=C\CCCC(=O)NS(C)(=O)=O`, the “fold change (FC)” value turned out to be 12 in data set [6]; 7 in data set [2]; 1 in data set [3]; 10 in data set [4]; 47 in data set [5].

Consider `CCCCC[C@H](O)/C=C/[C@H]1[C@H](O)CC(=O)[C@@H]1C/C=C\CCCC(=O)NS(=O)(=O)c1ccccc1`, for which the “fold change (FC)” value in data set [6] is 20; in data set [2], 3.1; in data set [3] it was less than 0.5; in data set [4], 33; in data set [5], 28.

For `CCCCC[C@H](O)/C=C/[C@H]1[C@H](O)CC(=O)[C@@H]1C/C=C\CCCC(N)=O`, the “fold change (FC)” value in data set [6] amounted to 0; in data set [2], 0.6; in data set [3], 10; in data set [4], 10; in data set [5], 28.

Consider `CCCCC[C@H](O)/C=C/[C@@H]1[C@@H](C/C=C\CCCc2nnn[nH]2)[C@@H](O)C[C@H]1O`, for which the “fold change (FC)” value in data set [2] was 0.8; in data set [3], 2.5; in data set [4], less than 5.

For `CCCCC[C@H](O)/C=C/[C@@H]1[C@@H](C/C=C\CCCC(=O)NC(C)=O)[C@@H](O)C[C@H]1O`, the “fold change (FC)” value in data set [2] is reported as 30; in data set [3], less than 0.5; in data set [4], 78.

As to `CCCCC[C@H](O)/C=C/[C@@H]1[C@@H](C/C=C\CCCC(=O)NC(=O)c2ccccc2)[C@@H](O)C[C@H]1O`, the “fold change (FC)” value in data set [2] is recorded as 0.9; in data set [3], 0.5; in data set [4] it was less than 5.

In the case of `CCCCC[C@H](O)/C=C/[C@@H]1[C@@H](C/C=C\CCNC(=O)NC(C)=O)[C@@H](O)C[C@H]1O`, the “fold change (FC)” value is less than 0.1 in data set [2], less than 0.5 in data set [3] and less than 5 in data set [4].

Consider `CCCCC[C@H](O)/C=C/[C@@H]1[C@@H](C/C=C\CCCC(=O)NC(=O)NCC)[C@@H](O)C[C@H]1O`, for which the “fold change (FC)” value in data set [2] is recorded as less than 0.1; in data set [3], less than 0.5; in data set [4], less than 10.

As for `CCCCC[C@H](O)/C=C/[C@@H]1[C@@H](C/C=C\CCCC(=O)NS(C)(=O)=O)[C@@H](O)C[C@H]1O`, the results for the “fold change (FC)” value in data set [2], in data set [3] and in data set [4] were less than 0.1, less than 0.5 and 25, respectively.

Consider `CCCCC[C@H](O)/C=C/[C@@H]1[C@@H](C/C=C\CCCC(=O)NS(=O)(=O)c2ccccc2)[C@@H](O)C[C@H]1O`, for which the “fold change (FC)” value was less than 0.1 in data set [2], less than 0.5 in data set [3] and less than 10 in data set [4].

For the compound `CCCCC[C@H](O)/C=C/[C@@H]1[C@@H](C/C=C\CCCC(N)=O)[C@@H](O)C[C@H]1O`, the figures for the “fold change (FC)” value in data set [2], in data set [3] and in data set [4] were less than 0.1, 2.5 and less than 5, respectively.

In the case of `CCCCC(C)(C)[C@H](O)/C=C/[C@H]1[C@H](O)CC(=O)[C@@H]1C/C=C\CCCc1nnn[nH]1`, the “fold change (FC)” value amounted to 130 in data set [1]; 120 in data set [2]; 10 in data set [3]; 2550 in data set [4]; 76 in data set [5].

As to `CCCCC(C)(C)[C@H](O)/C=C/[C@H]1[C@H](O)CC(=O)[C@@H]1C/C=C\CCCC(=O)NC(C)=O`, the “fold change (FC)” value in data set [1] was 330; in data set [2] it was 100; in data set [3] it was 2.5; in data set [4], 1250; in data set [5], 24.

`CCCCC(C)(C)[C@H](O)/C=C/[C@H]1[C@H](O)CC(=O)[C@@H]1C/C=C\CCCC(=O)NS(C)(=O)=O`: the “fold change (FC)” value is recorded as 220 in data set [1]; 25 in data set [2]; less than 0.5 in data set [3]; 1350 in data set [4]; 28 in data set [5].

As for `c1ccc([P+](CCCCc2nnn[nH]2)(c2ccccc2)c2ccccc2)cc1`, in data set [7], the pKa came to 4.93.

In data set [7], `CC(=O)NC(=O)CCCC[P+](c1ccccc1)(c1ccccc1)c1ccccc1` had a pKa of 12.9.

In turn, `O=C(CCCC[P+](c1ccccc1)(c1ccccc1)c1ccccc1)NC(=O)c1ccccc1` gave a pKa in data set [7] of 12.9.

With `CS(=O)(=O)NC(=O)CCCC[P+](c1ccccc1)(c1ccccc1)c1ccccc1`, the pKa in data set [7] is 5.25.

As to `O=C(CCCC[P+](c1ccccc1)(c1ccccc1)c1ccccc1)NS(=O)(=O)c1ccccc1`, the pKa in data set [7] turned out to be 5.12.

Turning to `NC(=O)CCCC[P+](c1ccccc1)(c1ccccc1)c1ccccc1`, the pKa in data set [7] was 15.1.

`O=C(O)CCCC[P+](c1ccccc1)(c1ccccc1)c1ccccc1` had a pKa in data set [7] of 5.19.

For the compound `CCCCC[C@H](O)/C=C/[C@@H]1[C@@H](C/C=C\CCCC(=O)O)[C@@H](O)C[C@H]1O` [DINOPROST], the entries for the “fold change (FC)” value in data set [2], in data set [3] and in data set [4] were 10, 10 and 6.5, respectively.

The values above are taken from ChEMBL document CHEMBL3244067, “Synthesis and biological activity of carboxyl-terminus modified prostaglandin analogues” (J Med Chem, 1979).
